Assays:
AGS = assay: Cell proliferation assay (Cell-titer Glo), AGS; type: cell-based; details: Homo sapiens, KRAS G12D, 96 h
Experimental: (§1) Cells with different mutations were seeded in low-attachment transparent 96-well plates at the seeding densities shown in Table 1, and incubated overnight in a cell culture incubator. After the cells adhered, the test compounds were added to the 96-well plates at final concentrations of 20000 nM, 5000 nM, 1250 nM, 312.5 nM, 78.13 nM, 19.53 nM, 4.88 nM, 1.22 nM, 0.31 nM, 0 nM (the final concentration of DMSO was 0.25% in all wells). After culturing at 37°C for 96 h, 50 µL of Cell-titer Glo working solution was added to each well. The plates were shaken to mix and then incubated at room temperature for 10 min. Luminescence values were read on a multimode microplate reader, and the luminescence data were converted into percentage inhibition. The percentage of cell proliferation inhibition was calculated according to the following formula: Percentage inhibition = (1−(TestValue−Blank)/(MaxValue−Blank)) × 100% [formula]
(§2) ("Max value" is from the 0.25% DMSO control wells, "Blank" is from the blank medium control wells, and "Test Value" is from the compound-treated wells).
(§3) Curve fitting was performed using GraphPad Prism software to obtain IC50 (nM) values.

AsPC-1 = assay: Cell proliferation assay (Cell-titer Glo), AsPC-1; type: cell-based; details: Homo sapiens, ASPC1, AsPC-1, KRAS G12D, 96 h
Experimental: as §1, §2, §3

MKN-1 = assay: Cell proliferation assay (Cell-titer Glo), MKN-1; type: cell-based; details: Homo sapiens, MKN-1, KRAS WT-Amp, 96 h
Experimental: as §1, §2, §3

[1] = PK study in ICR mice, intravenous single administration; type: in vivo; details: female, 3 mg/kg
Experimental: Compound 115 was mixed with the vehicle 10% DMSO/5% Solutol/85% physiological saline, vortexed and sonicated to prepare a 0.6 mg/mL clear solution. Female ICR mice aged 6 to 7 weeks were selected, not fasted, and administered Compound 115 intravenously. Whole blood was collected at certain time points. Drug concentrations were analyzed by LC-MS/MS method, and pharmacokinetic parameters were calculated using Phoenix WinNonlin software (Pharsight, USA). Table 3. Mouse PK data for intravenous single administration of Compound 115

[2] = PK study in SD rats, intravenous single administration; type: in vivo; details: male, 3 mg/kg
Experimental: Compound 115 was mixed with the vehicle 10% DMSO/5% Solutol/85% physiological saline, vortexed and sonicated to prepare a 1.5 mg/mL clear solution. Male SD rats aged 6 to 7 weeks were selected, fasted for 8 h, and then administered Compound 115 intravenously. Whole blood was collected at certain time points. Drug concentrations were analyzed by LC-MS/MS method, and pharmacokinetic parameters were calculated using Phoenix WinNonlin software (Pharsight, USA). Table 4. Rat PK data for intravenous single administration of Compound 115

HCT116 = assay: Cell proliferation assay (Cell-titer Glo), HCT116; type: cell-based; details: Homo sapiens, HCT-116, HCT116, KRAS G13D, 96 h
Experimental: as §1, §2, §3

SW620 = assay: Cell proliferation assay (Cell-titer Glo), SW620; type: cell-based; details: Homo sapiens, SW-620, SW620, KRAS G12V, 96 h
Experimental: as §1, §2, §3

[3] = PK study in Beagle dogs, intravenous single administration; type: in vivo; details: one female and one male, 3 mg/kg
Experimental: Compound 115 was mixed with the vehicle 10% DMSO/5% Solutol/85% physiological saline, vortexed and sonicated to prepare a 1.5 mg/mL clear intravenous injection solution. Beagle dogs weighing approximately 10 kg (half male, half female) were selected, not fasted, and administered Compound 115 intravenously. Whole blood samples were collected intravenously at 5 min, 15 min, 30 min, 1 h, 2 h, 4 h, 6 h, 8 h, 10 h, 24 h, 48 h, and 72 h. Drug concentrations were analyzed by LC-MS/MS method, and pharmacokinetic parameters were calculated using Phoenix WinNonlin software (Pharsight, USA). Table 5. Beagle Dog PK data for intravenous single administration of Compound 115

Panc0403 = assay: Cell proliferation assay (Cell-titer Glo), Panc0403; type: cell-based; details: Homo sapiens, Panc 04.03, Panc0403, KRAS G12D, 96 h
Experimental: as §1, §2, §3

IC50 (AGS): 0.9 nM
IC50 (AsPC-1): 1.9 nM
IC50 (MKN-1): 0.7 nM
Cl_obs [1]: 0.822 L/h/kg
Vss_obs [1]: 9.23 L/kg
AUC(0-t) ([1]; mouse, in vivo): 3.71 µg·h/mL
C0 ([1]; mouse, in vivo): 7.51 µg/mL
half-life ([1]; mouse, in vivo): 13.5 h
Cl_obs [2]: 0.326 L/h/kg
Vss_obs [2]: 5.06 L/kg
AUC(0-t) ([2]; rat, in vivo): 9.17 µg·h/mL
C0 ([2]; rat, in vivo): 17.3 µg/mL
half-life ([2]; rat, in vivo): 12.7 h
IC50 (HCT116): 20 nM
IC50 (SW620): 8 nM
AUC(0-t) ([3]; dog, in vivo): 20.7 µg·h/mL
C0 ([3]; dog, in vivo): 22.7 µg/mL
half-life ([3]; dog, in vivo): 23.3 h
Cl_obs [3]: 0.118 L/h/kg
Vss_obs [3]: 1.82 L/kg
IC50 (Panc0403): 5.9 nM
SMILES: CCc1c(F)ccc2cc(O)cc(-c3ncc4c(N5CCOC[C@@](C)(O)C5)nc(OCC5(CN6CCC7(CCN(Cc8cnc(-c9cn([C@H](C(=O)N%10C[C@H](O)C[C@H]%10C(=O)N[C@@H](C)c%10ccc(-c%11scnc%11C)cc%10)C(C)C)nn9)cn8)CC7)CC6)CC5)nc4c3F)c12 [Compound 115, (2S,4R)-1-((S)-2-(4-(5-((9-((1-(((7-(8-ethyl-7-fluoro-3-hydroxynaphthalen-1-yl)-8-fluoro-4-((S)-6-hydroxy-6-methyl-1,4-oxazepan-4-yl)pyrido[4,3-d]pyrimidin-2-yl)oxy)methyl)cyclopropyl)methyl)-3,9-diazaspiro[5.5]undecan-3-yl)methyl)pyrazin-2-yl)-1H-1,2,3-triazol-1-yl)-3-methylbutanoyl)-4-hydroxy-N-((S)-1-(4-(4-methylthiazol-5-yl)phenyl)ethyl)pyrrolidine-2-carboxamide]

— patent publication EP4813978A1, “COMPOUND TARGETING UBIQUITIN KRAS PROTEIN DEGRADATION AGENT, AND USE THEREOF” (Betta Pharmaceuticals Co., Ltd, priority 2023, dated 2025)
